Assay results reported in paper PMC7558026, “Exploring and applying the substrate promiscuity of a C-glycosyltransferase in the chemo-enzymatic synthesis of bioactive C-glycosides” (Nature Communications, 2020).
Several values for one entry are separate records, joined by “and”; a condition that tells them apart may be missing. Equal entries are not always repeated. Entries after “also recorded” stand apart in the source; their conditions may differ. Blank lines part the entries; values can stand above or below the compound they belong to.

What was measured:
SGLT2 = molecular target: T1, SGLT2 (Homo sapiens, UniProt P31639); test: 1-NBDG uptake in HEK293 cells stably expressing SGLT2; type: cell-based
T1 construct: Human full-length SGLT2 cDNA (NM_003041.3) was synthesized; expressed in transfected cells; host or cells: HEK293, retroviral transduction with pMSCVpuro-SGLT2, puromycin selected
T1 sequence (P31639 1-672): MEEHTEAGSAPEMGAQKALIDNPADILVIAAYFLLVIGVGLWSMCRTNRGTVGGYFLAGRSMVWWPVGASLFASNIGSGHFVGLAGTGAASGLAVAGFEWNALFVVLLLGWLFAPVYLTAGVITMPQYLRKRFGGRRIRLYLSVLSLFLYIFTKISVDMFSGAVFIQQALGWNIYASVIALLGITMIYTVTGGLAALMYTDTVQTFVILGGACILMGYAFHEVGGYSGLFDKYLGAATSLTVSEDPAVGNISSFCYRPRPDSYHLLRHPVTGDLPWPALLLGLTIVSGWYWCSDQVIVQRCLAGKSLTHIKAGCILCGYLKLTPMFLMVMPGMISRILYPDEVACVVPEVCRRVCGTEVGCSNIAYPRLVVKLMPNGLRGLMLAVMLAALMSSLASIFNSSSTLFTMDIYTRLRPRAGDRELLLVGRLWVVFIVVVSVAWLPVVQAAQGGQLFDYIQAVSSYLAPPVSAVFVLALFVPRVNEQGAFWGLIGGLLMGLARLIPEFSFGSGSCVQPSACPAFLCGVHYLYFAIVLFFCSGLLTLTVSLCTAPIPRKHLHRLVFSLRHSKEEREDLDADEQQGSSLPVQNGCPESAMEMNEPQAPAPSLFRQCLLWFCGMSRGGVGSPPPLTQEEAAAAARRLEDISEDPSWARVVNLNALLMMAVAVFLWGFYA

KKAy mice [1] = test: Urinary glucose excretion in T2DM KKAy mice; type: in vivo; settings: for glucose in urine: 46a 100 mg kg^‒1 or dapagliflozin 5mg/kg, individual mice
Method: (§1) To evaluate the hypoglycemic effect of 46a in type 2 diabetes mellitus (T2DM), female KKAy mice weighing 42–48 g were obtained from the Animal Center of the Institute of Laboratory Animal Sciences, Chinese Academy of Medical Sciences and Peking Union Medical College. […] Blood samples were collected at 1, 2, 4, 6, 8, 24, and 48 h after treatment. […] The glucose levels in urine 4 h and 6 h after administration were also determined using a Biosen C-Line Glucose analyzer (EKF Diagnostics, Germany).

ICR mice = test: Oral glucose-tolerance test (OGTT) in normal ICR mice; type: in vivo; settings: for OD505nm (blood glucose, GOD assay) in OGTT: individual mice
Method: The hypoglycemic effect of 46a was firstly evaluated by oral glucose-tolerance test (OGTT) in mice with normal blood glucose levels. Male Institute of Cancer Research (ICR) mice weighing 24–26 g were obtained from Beijing Vital River Laboratory Animal Technology Co., Ltd (Beijing, China) and divided into three groups (n = 7–8). […] After 2 h of fasting, blood samples were collected from the tails for determination of baseline values of blood glucose (0 min). The mice were then orally administered glucose (2 g kg^‒1 BW), and blood samples were collected at 15, 30, 60, and 120 min. A glucose oxidase (GOD) assay was used for blood glucose-level measurement. The values of area under the glucose-time curve (AUC) were calculated.

alloxan-induced DM mice = test: Hypoglycemic effect in alloxan-induced diabetic mellitus (DM) mice; type: in vivo; settings: for OD505nm (nonfasting blood glucose): individual mice
Method: Type 1 diabetes mellitus (T1DM) mice were established by intravenous injection of alloxan tetrahydrate (68 mg kg^‒1 BW). […] Nonfasting blood glucose was kinetically monitored at 1, 2, 4, 6, 8, 24, and 48 h after treatment with 46a.

KKAy mice [2] = test: Hypoglycemic effect in T2DM KKAy mice, blood glucose; type: in vivo; settings: for blood glucose: individual mice
Method: as §1

SGLT1 = molecular target: T2, SGLT1 (Homo sapiens, UniProt P13866); test: 1-NBDG uptake in HEK293 cells stably expressing SGLT1; type: cell-based; settings: HEK293, compound at 10 μM; triplicate; read-out: SGLT1 inhibitory rates
T2 construct: The full-length SGLT1 cDNA was obtained by PCR with forward primer; expressed in transfected cells
T2 sequence (P13866 1-664): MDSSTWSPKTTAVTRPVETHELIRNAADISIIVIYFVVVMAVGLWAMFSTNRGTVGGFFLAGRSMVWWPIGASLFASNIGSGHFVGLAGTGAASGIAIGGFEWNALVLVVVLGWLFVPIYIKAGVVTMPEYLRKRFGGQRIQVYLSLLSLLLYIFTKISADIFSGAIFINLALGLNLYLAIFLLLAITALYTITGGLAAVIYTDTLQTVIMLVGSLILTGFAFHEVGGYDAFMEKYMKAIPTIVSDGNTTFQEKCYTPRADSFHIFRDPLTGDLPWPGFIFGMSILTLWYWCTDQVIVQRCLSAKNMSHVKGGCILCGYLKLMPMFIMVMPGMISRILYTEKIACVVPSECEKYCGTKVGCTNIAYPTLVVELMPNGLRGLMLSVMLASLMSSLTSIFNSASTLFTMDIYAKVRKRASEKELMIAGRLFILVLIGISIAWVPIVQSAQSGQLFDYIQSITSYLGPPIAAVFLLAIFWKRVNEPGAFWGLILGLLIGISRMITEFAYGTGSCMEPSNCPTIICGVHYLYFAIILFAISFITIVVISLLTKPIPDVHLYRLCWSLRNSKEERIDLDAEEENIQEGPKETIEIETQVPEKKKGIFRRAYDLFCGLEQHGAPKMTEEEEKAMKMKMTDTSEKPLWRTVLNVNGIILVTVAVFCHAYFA

AbCGT = AbCGT (Aloe vera, UniProt A0A7G9P699); test: Sugar donor promiscuity of AbCGT with phloretin (17) as acceptor; type: biochemical, Aloe barbadensis; settings: sugar donor with phloretin (17) as acceptor; Reaction-1 to -3
AbCGT, sequence (A0A7G9P699 entry or part of it): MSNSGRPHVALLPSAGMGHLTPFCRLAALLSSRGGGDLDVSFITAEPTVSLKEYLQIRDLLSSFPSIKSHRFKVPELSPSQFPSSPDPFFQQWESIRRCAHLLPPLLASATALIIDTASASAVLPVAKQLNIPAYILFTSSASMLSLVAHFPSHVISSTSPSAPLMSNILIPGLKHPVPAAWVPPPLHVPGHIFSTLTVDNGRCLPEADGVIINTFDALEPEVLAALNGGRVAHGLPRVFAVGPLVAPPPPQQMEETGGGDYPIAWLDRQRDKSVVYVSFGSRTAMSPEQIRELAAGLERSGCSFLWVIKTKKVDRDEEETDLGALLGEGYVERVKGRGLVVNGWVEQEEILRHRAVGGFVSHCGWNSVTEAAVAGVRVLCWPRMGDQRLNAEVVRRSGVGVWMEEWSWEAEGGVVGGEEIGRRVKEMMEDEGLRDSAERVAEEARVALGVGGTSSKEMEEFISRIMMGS
Method: The reaction mixture contained 0.5 mM sugar donors (1.0 mM for di-glycosylation), 0.25 mM aglycons, 50 mM Tris-HCl (pH 7.4), and 50‒100 μg of purified AbCGT in a final volume of 100 μL. Due to the instability of some acceptors in the buffer of pH 11.0, the reactions were performed under the physiological conditions (pH 7.4, 30 °C) to compare the catalytic activities of AbGT27 with different substrates under the same conditions. The reactions were performed at 30 °C for up to 12 h and terminated by the addition of 200 μL of ice-cold methanol. Subsequently, samples were centrifuged at 15,000 × g for 30 min to collect the supernatant, and aliquots were analyzed by HPLC-UV/ESIMS. HPLC analysis was performed on a Shiseido CAPCELL PAK C18 MG III column (250 mm × 4.6 mm I.D., 5 μm, Shiseido Co., Ltd., Japan) at a flow rate of 1 mL min^‒1. The mobile phase was a gradient elution of solvents A (0.1% formic acid aqueous solution) and B (methanol). The gradient programs were used for the analysis of the reactions (Supplementary Table 6). The conversion rates of the enzyme reactions were calculated from peak areas of glycosylated products and substrates as analyzed by HPLC. To facilitate inferential statistical analysis, three parallel assays were routinely performed; the means ± SD from triplicate analyses are reported here.

inhibition at 10 µM (SGLT2; HEK293, compound at 10 μM, triplicate, read-out: SGLT2 inhibitory rates): > 96%
SGLT2 inhibitory rates (SGLT2; compound at 10 μM, triplicate, 10 µM): 100%
increase of SGLT2 inhibitory activity compared to the unsubstituted glycoside 38a (SGLT2; from IC50 values, 46a vs 38a): more than 17 times
inhibition at 10 µM (SGLT1): 50.4%
Compound: Cc1ccc(Cc2c(O)cc(O)c(C3OC(CO)C(O)C(O)C3O)c2O)cc1 (stereo not drawn) [Compound 46a]
glucose in urine (KKAy mice [1]; 4h): 11366 mg/dL and 12692 mg/dL and 12124 mg/dL
glucose in urine (KKAy mice [1]; 6h): 8584 mg/dL and 12278 mg/dL and 11404 mg/dL and 9012 mg/dL
urinary glucose excretion (in words) (KKAy mice [1]; single administration): elevated urinary glucose excretion; also recorded: promoted urinary glucose excretion
OD505nm (blood glucose, GOD assay) in OGTT (ICR mice; 0 min, ICR mice, oral 46a 100 mg kg^‒1 or dapagliflozin 5 mg kg^‒1): 0.153 and 0.163 and 0.176 and 0.168 and 0.167 and 0.175 and 0.178
OD505nm (blood glucose, GOD assay) in OGTT (ICR mice; 15 min after glucose 2 g kg^‒1, oral 46a 100 mg kg^‒1 or dapagliflozin 5 mg kg^‒1): 0.178 and 0.123 and 0.205 and 0.183 and 0.193 and 0.203 and 0.189
OD505nm (blood glucose, GOD assay) in OGTT (ICR mice; 30 min after glucose, same doses): 0.183 and 0.213 and 0.193 and 0.202 and 0.218 and 0.205 and 0.211
OD505nm (blood glucose, GOD assay) in OGTT (ICR mice; 60 min after glucose, same doses): 0.19 (2×) and 0.208 and 0.2 and 0.178 and 0.187 and 0.202
OD505nm (blood glucose, GOD assay) in OGTT (ICR mice; 120 min after glucose, same doses): 0.169 and 0.181 and 0.185 and 0.187 and 0.178 (2×) and 0.207
blood glucose after glucose loading / glucose tolerance (in words) (ICR mice; ICR mice, 100 mg kg^‒1 46a oral): significantly lowered the peak value of blood glucose after glucose loading; also recorded: enhanced glucose tolerance
OD505nm (nonfasting blood glucose) (alloxan-induced DM mice; 0h, alloxan-induced DM mice, single dose 46a 100 mg kg^‒1 or dapagliflozin 5 mg kg^‒1): 0.431 and 0.458 and 0.49 and 0.52 and 0.521 and 0.444 and 0.562 and 0.464
OD505nm (nonfasting blood glucose) (alloxan-induced DM mice; 1h, same doses): 0.26 and 0.308 (2×) and 0.339 and 0.305 and 0.23 and 0.256 and 0.248
OD505nm (nonfasting blood glucose) (alloxan-induced DM mice; 2h, same doses): 0.231 and 0.293 and 0.455 and 0.311 and 0.26 and 0.191 and 0.29 and 0.211
OD505nm (nonfasting blood glucose) (alloxan-induced DM mice; 4h, same doses): 0.321 and 0.404 and 0.412 and 0.349 and 0.326 and 0.246 and 0.294 and 0.251
OD505nm (nonfasting blood glucose) (alloxan-induced DM mice; 8h, same doses): 0.424 and 0.434 and 0.432 and 0.559 and 0.489 and 0.42 and 0.457 and 0.316
OD505nm (nonfasting blood glucose) (alloxan-induced DM mice; 24h, same doses): 0.5 and 0.59 and 0.679 and 0.688 and 0.606 and 0.51 and 0.507 and 0.483
OD505nm (nonfasting blood glucose) (alloxan-induced DM mice; 48h, same doses): 0.317 and 0.566 and 0.646 and 0.639 and 0.631 and 0.47 and 0.542 and 0.494
hypoglycemic activity (in words) (alloxan-induced DM mice; alloxan-induced DM mice, oral single administration): exhibited obviously hypoglycemic activity
blood glucose (KKAy mice [2]; 0h, KKAy mice, single dose 46a 100 mg kg^‒1 or dapagliflozin 5 mg kg^‒1): 391.7 mg/dL and 463.4 mg/dL and 285.8 mg/dL and 498.6 mg/dL and 457.9 mg/dL and 376.2 mg/dL and 436.2 mg/dL
blood glucose (KKAy mice [2]; 1h, same doses): 205.3 mg/dL and 315 mg/dL and 262 mg/dL and 341.1 mg/dL and 283 mg/dL and 307.9 mg/dL and 329 mg/dL
blood glucose (KKAy mice [2]; 2h, same doses): 212.4 mg/dL and 285.2 mg/dL and 250.2 mg/dL and 371.1 mg/dL and 288 mg/dL and 260.7 mg/dL and 328.6 mg/dL
blood glucose (KKAy mice [2]; 4h, same doses): 205.2 mg/dL and 255.5 mg/dL and 229.1 mg/dL and 299.5 mg/dL and 368.8 mg/dL and 243.8 mg/dL and 201.2 mg/dL
blood glucose (KKAy mice [2]; 6h, same doses): 206.4 mg/dL and 242.8 mg/dL and 220.9 mg/dL and 332.5 mg/dL and 314.8 mg/dL and 301 mg/dL and 171 mg/dL
blood glucose (KKAy mice [2]; 8h, same doses): 215.9 mg/dL and 255.1 mg/dL and 195.2 mg/dL and 297 mg/dL and 255.7 mg/dL and 245.8 mg/dL and 197.4 mg/dL
blood glucose (KKAy mice [2]; 24h, same doses): 269.1 mg/dL and 338.2 mg/dL and 240.2 mg/dL and 308.3 mg/dL and 291.4 mg/dL and 330 mg/dL and 166.4 mg/dL
blood glucose (KKAy mice [2]; 48h, same doses): 250.5 mg/dL and 412.5 mg/dL and 265.3 mg/dL and 242.5 mg/dL and 425.9 mg/dL and 396 mg/dL and 189.5 mg/dL
blood glucose level (in words) (KKAy mice [2]; KKAy mice, single administration, vs control (solvent-treated) group): decreased at 1 h after 46a administration and was maintained at a lower level for 24 h; also recorded: lowered the blood glucose

conversion rates, O,N,S-glycosylation (AbCGT): 0%
conversion rates, di-C-glycosylation (AbCGT): 0%
conversion rates, mono-C-glycosylation (AbCGT): 0%
Compound: CC(=O)NC1C(OP(=O)(O)OP(=O)(O)OCC2OC(n3ccc(=O)[nH]c3=O)C(O)C2O)OC(CO)C(O)C1O (stereo not drawn) [f]
